Values of other authors as cited in US20160244831A9, “Genetic Alterations Associated with Autism and the Autistic Phenotype and Methods of Use Thereof for the Diagnosis and Treatment of Autism” (The Children's Hospital of Philadelphia, priority 2011, published 2016).

How the values were obtained:
[1] = at levels that are highly teratogenic in humans
[2] = individuals exposed between days 24-28 post-fertilization

| rate of ASD [2] [%] | SMILES | expression of RANBP1 mRNA (RANBP1 mRNA) | teratogenicity in animals [1] |
| --- | --- | --- | --- |
| 27 | O=C1CCC(N2C(=O)c3ccccc3C2=O)C(=O)N1 (stereo not shown) [Thalidomide] | decreased expression | lack of teratogenicity |
|  | CCCC(CCC)C(=O)O [Valproate, Valproic acid] | decreased expression |  |
